Molecules are shown by their SMILES. Active and inactive are the calls of the source. No cut-off for these calls is given here.

Consider 2 compounds from ChEMBL document CHEMBL3871307, “Discovery of Chromane Propionic Acid Analogues as Selective Agonists of GPR120 with in Vivo Activity in Rodents” (ACS Med Chem Lett, 2017).

Data set [1] can be described thus: Plasma concentration in C57BL/6 transverse aortic constriction mouse at 100 mg/kg, po via gavage measured at 3 hrs. Type of data set: ADME, organism-based. The conditions noted are these: C57BL/6, mouse.
Data set [2] addresses T1, Free fatty acid receptor 4 (Homo sapiens) (UniProt Q5NUL3).
T1 sequence (whole entry): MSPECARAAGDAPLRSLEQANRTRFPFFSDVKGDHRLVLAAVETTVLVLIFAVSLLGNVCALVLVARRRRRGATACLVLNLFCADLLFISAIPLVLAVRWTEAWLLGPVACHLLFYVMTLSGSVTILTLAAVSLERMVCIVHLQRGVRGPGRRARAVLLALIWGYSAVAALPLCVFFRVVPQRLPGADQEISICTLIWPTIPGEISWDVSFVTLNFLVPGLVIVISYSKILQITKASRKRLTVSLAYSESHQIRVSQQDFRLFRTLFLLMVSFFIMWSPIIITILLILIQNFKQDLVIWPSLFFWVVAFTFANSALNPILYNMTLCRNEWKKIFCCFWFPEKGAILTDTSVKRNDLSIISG
Put plainly: Agonist activity at human GPR120 short isoform expressed in CHOK1 cells assessed as increase in IP1 accumulation at 10 uM after 60 mins by HTRF assay. Format: functional, cell-based. The conditions noted are these: CHO-K1. In general terms: In TR-FRET formats the signal depends on donor and acceptor labels being close together.

For data set [3], the target named is T2, Free fatty acid receptor 4 (Homo sapiens, UniProt Q5NUL3).
T2 sequence (Q5NUL3 whole entry): T1 sequence (whole entry)
The data set is described as follows: Agonist activity at human GPR120 short isoform expressed in CHOK1 cells assessed as increase in IP1 accumulation after 60 mins by HTRF assay. Type of data set: functional, cell-based, CHO-K1.

In data set [4] the test system is Mus musculus. Put plainly: Glucose lowering effect in C57BL/6 transverse aortic constriction mouse assessed as reduction in blood glucose at 100 mg/kg, po pretreated for 60 mins as single dose via gavage followed by dextrose challenge measured up to 120 mins post glucose challenge by OGTT. Format: functional, organism-based.
For data set [5], the target named is T3, Free fatty acid receptor 4 (Mus musculus) (UniProt Q7TMA4).
T3 sequence (whole entry): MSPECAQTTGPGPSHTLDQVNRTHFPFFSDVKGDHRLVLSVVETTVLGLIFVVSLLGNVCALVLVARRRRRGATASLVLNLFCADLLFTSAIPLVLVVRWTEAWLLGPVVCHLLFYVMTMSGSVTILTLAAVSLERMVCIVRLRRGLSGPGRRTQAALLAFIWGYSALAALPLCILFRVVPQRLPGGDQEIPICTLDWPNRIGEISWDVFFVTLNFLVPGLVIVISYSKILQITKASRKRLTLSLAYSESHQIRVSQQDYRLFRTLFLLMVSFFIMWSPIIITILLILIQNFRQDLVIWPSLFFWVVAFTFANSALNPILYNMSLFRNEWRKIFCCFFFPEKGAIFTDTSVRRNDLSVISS
Put plainly: Agonist activity at mouse GPR120 expressed in CHOK1 cells assessed as increase in IP1 accumulation after 60 mins by HTRF assay. The conditions noted are these: CHO-K1. Format: functional, cell-based.

In data set [6] the target is T2, Free fatty acid receptor 4. The data set is described as follows: Agonist activity at human GPR120 short isoform expressed in CHOK1 cells assessed as beta-arrestin recruitment after 90 mins by luminescence assay. Type of data set: cell-based, CHO-K1.
Data set [7] deals with Free fatty acid receptor 1 (Homo sapiens, UniProt O14842). The data set is described as follows: Agonist activity at human GPR40 expressed in HEK293 cells assessed as increase in IP1 accumulation after 60 mins by HTRF assay. Type of data set: functional, cell-based.
Data set [8] has as its system Mus musculus. The data set is described as follows: Glucose lowering effect in C57BL/6 transverse aortic constriction mouse assessed as reduction in blood glucose at 30 mg/kg, po pretreated for 60 mins as single dose via gavage followed by dextrose challenge measured up to 120 mins post glucose challenge by OGTT. Type of data set: functional, organism-based.
Data set [9] in a line: Plasma concentration in C57BL/6 transverse aortic constriction mouse at 30 mg/kg, po via gavage measured at 3 hrs. Type of data set: ADME, organism-based. As to conditions: C57BL/6, mouse.

Free fatty acid receptor 1, sequence (O14842 whole entry): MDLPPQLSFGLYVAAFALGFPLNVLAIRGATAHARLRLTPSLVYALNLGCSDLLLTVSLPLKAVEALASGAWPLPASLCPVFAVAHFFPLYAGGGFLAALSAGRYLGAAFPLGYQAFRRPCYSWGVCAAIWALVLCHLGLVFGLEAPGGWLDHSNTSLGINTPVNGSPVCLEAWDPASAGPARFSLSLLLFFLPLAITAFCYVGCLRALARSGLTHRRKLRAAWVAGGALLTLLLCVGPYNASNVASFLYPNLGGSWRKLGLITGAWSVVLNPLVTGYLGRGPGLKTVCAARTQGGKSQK

Regarding `Fc1ccc(OC2CCC2)cc1-c1ccc2c(c1)CC[C@H](CCc1nnn[nH]1)O2`, the concentration at 3 h in data set [1] was found to be 40.6 µM. Moreover, the Activity in data set [2] worked out at 44%. In addition, the 50% effective concentration (EC50) in data set [3] is 220 nM; in [6], 84 nM; in data set [7] it was more than 10 µM. Moreover, the result (with Mus musculus [4]; in data set [5]) was Active.
Take `CO[C@H]1C[C@H](Oc2cc(F)c(F)c(-c3ccc4c(c3)CC[C@H]([C@@H]3C[C@H]3C(=O)O)O4)c2)C1`: the result in the data set with Mus musculus [8] was Active. For the same compound, the Activity in [2] was more than 50%. The EC50 in data set [3] was 45 nM; in data set [6] it was 17 nM; in [7], more than 10 µM. In [9], this compound showed a concentration at 3 h of 37.4 µM.

As a reminder, the EC50 is the concentration giving half of the maximal effect.
